We go through 1 compound from patent US20110028559A1, “SUBSTITUTED FLUOROETHYL UREAS AS ALPHA 2 ADRENERGIC AGENTS” (priority 2007, published 2011).

The assay deals with T1, Alpha 2C (Homo sapiens, UniProt P18825).
T1 sequence (P18825 1-462): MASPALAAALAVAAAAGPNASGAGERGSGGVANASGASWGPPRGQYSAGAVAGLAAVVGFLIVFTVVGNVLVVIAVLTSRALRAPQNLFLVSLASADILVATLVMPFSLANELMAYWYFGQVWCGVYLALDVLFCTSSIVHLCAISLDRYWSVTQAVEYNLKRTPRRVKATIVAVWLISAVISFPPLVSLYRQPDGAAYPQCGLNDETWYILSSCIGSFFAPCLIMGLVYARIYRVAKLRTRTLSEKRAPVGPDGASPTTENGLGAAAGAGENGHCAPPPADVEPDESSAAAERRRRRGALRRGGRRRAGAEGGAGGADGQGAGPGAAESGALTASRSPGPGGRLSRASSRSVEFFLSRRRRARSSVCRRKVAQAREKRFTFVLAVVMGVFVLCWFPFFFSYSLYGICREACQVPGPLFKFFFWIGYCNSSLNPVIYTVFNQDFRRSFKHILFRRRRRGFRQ
Kind of assay: Alpha 2C adrenergic receptor functional activity (procedure of U.S. 60/911,442). The class given is cell-based. From the text:
U.S. Provisional Patent Application Ser. No. 60/911,442, filed Apr. 12, 2007, describes the procedure used to obtain the data in the table below. That procedure is incorporated by reference herein.

As for `CCC[C@@H]1CCCC[C@H]1NC(=O)NCCF` [1-(2-Fluoro-ethyl)-3-(2R-propyl-1R-cyclohexyl)-urea], the “Alpha 2C EC50” value is on record as “not active”.
